Measurements: PubChem BioAssay (NCI)
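Step 1: Grow cells in 96-well plates. Step 2: Expose to compound for 48 hours at 5 concentrations. Step 3: Interpolate endpoints linearly; if unreached, use highest concentration. At the TGI there is no net growth.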

Columns and labels:
Assay in all cases: NCI tumour cell line growth inhibition, 48 h
LOX IMVI melanoma = system: LOX IMVI melanoma
SW-620 colon = system: SW-620 colon
CAKI-1 renal = system: CAKI-1 renal
COLO 205 colon = system: COLO 205 colon
IGROV1 ovarian = system: IGROV1 ovarian
P388/ADR leukemia = system: P388/ADR leukemia
RXF 393 renal = system: RXF 393 renal
KM12 colon = system: KM12 colon
MOLT-4 leukemia = system: MOLT-4 leukemia
NCI/ADR-RES ovarian = system: NCI/ADR-RES ovarian
RPMI-8226 leukemia = system: RPMI-8226 leukemia
HCC-2998 colon = system: HCC-2998 colon
SNB-78 CNS = system: SNB-78 CNS
M19-MEL melanoma = system: M19-MEL melanoma
UACC-62 melanoma = system: UACC-62 melanoma
UO-31 renal = system: UO-31 renal
SK-MEL-28 melanoma = system: SK-MEL-28 melanoma
EKVX NSCLC = system: EKVX NSCLC
HOP-62 NSCLC = system: HOP-62 NSCLC
HCT-116 colon = system: HCT-116 colon
KM20L2 colon = system: KM20L2 colon
SNB-75 CNS = system: SNB-75 CNS
OVCAR-3 ovarian = system: OVCAR-3 ovarian
SF-268 CNS = system: SF-268 CNS
SF-295 CNS = system: SF-295 CNS
OVCAR-5 ovarian = system: OVCAR-5 ovarian
NCI-H522 lung = system: NCI-H522 lung
MALME-3M melanoma = system: MALME-3M melanoma
SN12K1 renal = system: SN12K1 renal
DLD-1 colon = system: DLD-1 colon
OVCAR-8 ovarian = system: OVCAR-8 ovarian
NCI-H226 lung = system: NCI-H226 lung
SK-OV-3 ovarian = system: SK-OV-3 ovarian
HL-60(TB) leukemia = system: HL-60(TB) leukemia
SK-MEL-5 melanoma = system: SK-MEL-5 melanoma
A549 NSCLC = system: A549 NSCLC
SF-539 CNS = system: SF-539 CNS
NCI-H23 lung = system: NCI-H23 lung
DMS 114 small cell lung = system: DMS 114 small cell lung
SK-MEL-2 melanoma = system: SK-MEL-2 melanoma
MCF7 breast = system: MCF7 breast
HOP-92 NSCLC = system: HOP-92 NSCLC
U251 CNS = system: U251 CNS
HOP-18 NSCLC = system: HOP-18 NSCLC
A498 renal = system: A498 renal
SNB-19 CNS = system: SNB-19 CNS
HT29 colon = system: HT29 colon
HCT-15 colon = system: HCT-15 colon
K-562 leukemia = system: K-562 leukemia
OVCAR-4 ovarian = system: OVCAR-4 ovarian
NCI-H460 lung = system: NCI-H460 lung
CCRF-CEM leukemia = system: CCRF-CEM leukemia
P388 leukemia = system: P388 leukemia
DMS 273 small cell lung = system: DMS 273 small cell lung
UACC-257 melanoma = system: UACC-257 melanoma
XF 498 CNS = system: XF 498 CNS
SN12C renal = system: SN12C renal

For `CCC(C(C)N1CC(=O)NC(=O)C1)N1CC(=O)NC(=O)C1` (configuration not stated), the TGI (LOX IMVI melanoma) was > 100 µM, the TGI (SW-620 colon) was > 100 µM and the TGI (CAKI-1 renal) was > 100 µM. The TGI (COLO 205 colon) was > 27.9 µM, the TGI (IGROV1 ovarian) was > 100 µM and the TGI (P388/ADR leukemia) was > 100 µM. For the same compound, the TGI (RXF 393 renal) was > 100 µM, the TGI (KM12 colon) was > 100 µM and the TGI (MOLT-4 leukemia) was > 100 µM. The TGI (NCI/ADR-RES ovarian) was > 100 µM, the TGI (RPMI-8226 leukemia) was > 100 µM and the TGI (HCC-2998 colon) was > 100 µM. For the same compound, the TGI (SNB-78 CNS) was > 100 µM, the TGI (M19-MEL melanoma) was > 100 µM and the TGI (UACC-62 melanoma) was > 100 µM. The TGI (UO-31 renal) was > 100 µM, the TGI (SK-MEL-28 melanoma) was > 100 µM and the TGI (EKVX NSCLC) was > 30 µM. For the same compound, the TGI (HOP-62 NSCLC) was > 100 µM, the TGI (HCT-116 colon) was > 100 µM and the TGI (KM20L2 colon) was > 100 µM. For the same compound, the TGI (SNB-75 CNS) was > 100 µM, the TGI (OVCAR-3 ovarian) was > 100 µM and the TGI (SF-268 CNS) was > 100 µM. The TGI (SF-295 CNS) was > 100 µM, the TGI (OVCAR-5 ovarian) was > 100 µM and the TGI (NCI-H522 lung) was > 63.5 µM. The TGI (MALME-3M melanoma) was > 100 µM, the TGI (SN12K1 renal) was > 100 µM and the TGI (DLD-1 colon) was > 100 µM. For the same compound, the TGI (OVCAR-8 ovarian) was > 100 µM, the TGI (NCI-H226 lung) was > 100 µM and the TGI (SK-OV-3 ovarian) was > 100 µM. For the same compound, the TGI (HL-60(TB) leukemia) was > 100 µM, the TGI (SK-MEL-5 melanoma) was > 100 µM and the TGI (A549 NSCLC) was > 100 µM. The TGI (SF-539 CNS) was > 100 µM, the TGI (NCI-H23 lung) was > 100 µM and the TGI (DMS 114 small cell lung) was > 95 µM. The TGI (SK-MEL-2 melanoma) was > 100 µM, the TGI (MCF7 breast) was > 100 µM and the TGI (HOP-92 NSCLC) was > 100 µM. The TGI (U251 CNS) was > 100 µM, the TGI (HOP-18 NSCLC) was > 100 µM and the TGI (A498 renal) was > 100 µM. The TGI (SNB-19 CNS) was > 100 µM, the TGI (HT29 colon) was > 100 µM and the TGI (HCT-15 colon) was > 100 µM. For the same compound, the TGI (K-562 leukemia) was > 100 µM, the TGI (OVCAR-4 ovarian) was > 100 µM and the TGI (NCI-H460 lung) was > 100 µM. For the same compound, the TGI (CCRF-CEM leukemia) was > 100 µM, the TGI (P388 leukemia) was > 75.9 µM and the TGI (DMS 273 small cell lung) was > 100 µM. For the same compound, the TGI (UACC-257 melanoma) was > 100 µM, the TGI (XF 498 CNS) was > 100 µM and the TGI (SN12C renal) was > 100 µM.
